# Literature values in patent publication US7416898B2, “Chemiluminescent 1,2-dioxetanes” (priority 2002, dated 2008).
# Details: compared with 1,2-dioxetanes (14) and (15)
structure (smiles),measurement,value
O=C(O)CCCOC1(c2cccc(OP(=O)(O)O)c2)OOC12C1CC3CC(C1)CC2C3 (stereo not shown) [Dioxetane 16],solubility in an aqueous system,"more soluble in an aqueous system than 1,2-dioxetane (14) and (15)"
